Assays:
[1] = species on record: Oryctolagus cuniculus; assay: Phentolamine dissociation constant was evaluated in rabbit ear artery; type: functional
[2] = biological target: T1, Alpha-1A adrenergic receptor (Homo sapiens, UniProt P35348); assay: Alpha-1 adrenergic receptor agonist activity in rabbit ear artery; type: functional, tissue-based, Oryctolagus cuniculus; details: target entry is the homologue from another species
T1 sequence (P35348 whole entry): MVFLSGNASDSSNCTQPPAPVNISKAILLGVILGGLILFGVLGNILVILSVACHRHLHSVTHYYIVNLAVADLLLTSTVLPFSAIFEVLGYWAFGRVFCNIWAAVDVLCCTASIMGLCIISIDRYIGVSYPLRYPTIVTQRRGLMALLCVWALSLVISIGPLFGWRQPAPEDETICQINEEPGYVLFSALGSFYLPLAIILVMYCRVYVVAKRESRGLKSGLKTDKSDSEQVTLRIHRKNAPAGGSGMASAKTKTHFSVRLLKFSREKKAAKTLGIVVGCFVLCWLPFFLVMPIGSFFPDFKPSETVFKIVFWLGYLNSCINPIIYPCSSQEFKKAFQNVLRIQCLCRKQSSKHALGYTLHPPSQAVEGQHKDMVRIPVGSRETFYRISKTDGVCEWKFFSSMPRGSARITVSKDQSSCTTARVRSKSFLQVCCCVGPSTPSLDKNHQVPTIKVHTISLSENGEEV

SMILES	Kb [1] [nM]	EC50 [2] [nM]
COc1ccc(OC)c(C(O)C(C)N)c1 (centres undefined) [METHOXAMINE]	9.8	720
COc1ccc(OC)c2c1CC[C@H]1NCCCC21 (some centres undefined)	11	170
COc1ccc(OC)c2c1C1CCC2[C@@H](N)C1 (some centres undefined)		30000
COc1ccc(OC)c2c1CC1C2[C@@H]1N (some centres undefined)	8.4	340
COc1ccc(OC)c2c1CCNC2		> 30000
NC1CCc2ccccc2C1 (centres undefined)		> 30000
COc1ccc(OC)c2c1C1CCC2[C@H](N)C1 (some centres undefined)		30000
COc1ccc(OC)c2c1CCCC(N)C2 (centres undefined)	11	5300
COc1ccc(OC)c2c1CC[C@@H]1NCCCC21 (some centres undefined)	14.7	200
COc1ccc(OC)c2c1CC(N)C2		30000
COc1ccc(OC)c2c1CCC(N)C2 (centres undefined)	6	120
COc1ccc(OC)c(CCN)c1	54	11000
